Starred links: 1 amine or outer side, 2 acyl side, 3 side chain; linkers in the order of their positions; H or OH if unused. Positions of bridges follow the written chain, without caps; N, C: chain ends. Non-standard residues stand in square brackets, D forms with d. Residues, ends and D or L forms follow the SMILES beside them. Groups on a side chain read outwards from the residue. *: point of attachment. Nle(6-morpholino) = N[C@@H](CCCCN1CCOCC1)C(=O)O; Phe(3-COOH) = N[C@@H](Cc1cccc(C(=O)O)c1)C(=O)O; Trp(7-aza) = N[C@@H](Cc1c[nH]c2ncccc12)C(=O)O; NH(CH2CH2O)8Me = COCCOCCOCCOCCOCCOCCOCCOCCN*; NMePhe(3-Cl) = CN[C@@H](Cc1cccc(Cl)c1)C(=O)O; Piperazinyl(4-CH2COOH) = O=C(O)CN1CCN(*)CC1; 3Pal(6-NH2) = Nc1ccc(C[C@H](N)C(=O)O)cn1; NMeY = CN[C@@H](Cc1ccc(O)cc1)C(=O)O; 4Pal = N[C@@H](Cc1ccncc1)C(=O)O; PEG4 = NCCOCCOCCOCCOCCC(=O)O; Carboxymethyl = O=C(O)C*; CO = O=C([*:1])[*:2]

T1 sequence (P02786 89-760 limits assumed): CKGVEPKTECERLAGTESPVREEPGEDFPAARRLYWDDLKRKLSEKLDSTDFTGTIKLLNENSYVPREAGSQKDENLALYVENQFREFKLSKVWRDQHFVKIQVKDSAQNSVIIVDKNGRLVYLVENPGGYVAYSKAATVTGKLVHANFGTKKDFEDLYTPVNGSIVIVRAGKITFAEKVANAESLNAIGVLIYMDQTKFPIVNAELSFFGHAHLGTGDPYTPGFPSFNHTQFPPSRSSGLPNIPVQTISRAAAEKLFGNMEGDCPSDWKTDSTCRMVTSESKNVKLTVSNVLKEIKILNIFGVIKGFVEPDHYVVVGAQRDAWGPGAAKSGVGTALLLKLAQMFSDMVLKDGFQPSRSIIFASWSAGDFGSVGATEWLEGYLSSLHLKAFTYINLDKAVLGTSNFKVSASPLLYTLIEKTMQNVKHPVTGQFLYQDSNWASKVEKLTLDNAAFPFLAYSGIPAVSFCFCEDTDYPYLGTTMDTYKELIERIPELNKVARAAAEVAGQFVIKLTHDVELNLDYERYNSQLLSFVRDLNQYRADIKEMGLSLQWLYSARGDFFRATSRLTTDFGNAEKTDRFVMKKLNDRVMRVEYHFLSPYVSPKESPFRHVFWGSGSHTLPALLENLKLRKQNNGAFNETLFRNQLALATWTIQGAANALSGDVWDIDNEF

This experiment has as its target T1, human transferrin receptor (hTfR) (Homo sapiens, UniProt P02786).
T1 construct: made in house
The experiment is described as follows: Evaluation of molecular interaction between transferrin receptor (hTfR) and peptide using surface plasmon resonance (SPR). It counts as binding. The conditions noted are these: peptide with linker, surface plasmon resonance; read-out: SPR (KD class for binding to hTfR). In short, it runs like this: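 Binding kinetics of peptides to immobilized recombinant human TfR dimer were measured by SPR at 5–100 nM in a single-cycle format, with KD obtained from curve fitting.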
Turning to `CC[C@H](C)[C@@H]1NC(=O)[C@H](Cc2ccc(OCC(=O)O)cc2)NC(=O)[C@H](Cc2ccc(O)cc2)NC(=O)[C@H](CC(N)=O)NC(=O)[C@H](Cc2c[nH]c3ncccc23)NC(=O)[C@H](C(C)C)NC(=O)[C@H](Cc2cccc(Cl)c2)N(C)C(=O)[C@H](C(C)C)NC(=O)[C@H](C)NC(=O)CSC[C@@H](C(=O)NCCOCCOCCOCCOCCC(N)=O)NC(=O)[C@H](Cc2ccc(O)cc2)N(C)C(=O)[C@H](Cc2cccc(C(=O)O)c2)NC(=O)[C@H](CCCNC(=N)N)NC(=O)[C@H](CCC(=O)NCCOCCOCCOCCOCCOCCOCCOCCOC)NC(=O)[C@H]([C@@H](C)CC)NC1=O` [compound 230], the Kd lay in the range of 0.001 to 0.1 µM.
With `CC[C@H](C)[C@@H]1NC(=O)[C@H](Cc2ccc(OCC(=O)O)cc2)NC(=O)[C@H](Cc2ccc(O)cc2)NC(=O)[C@H](CC(N)=O)NC(=O)[C@H](Cc2cn(CC(=O)O)c3ccccc23)NC(=O)[C@H](C(C)C)NC(=O)[C@H](Cc2cccc(Cl)c2)N(C)C(=O)[C@H](C(C)C)NC(=O)[C@H](C)NC(=O)CSC[C@@H](C(=O)NCCOCCOCCOCCOCCC(N)=O)NC(=O)[C@H](Cc2ccc(O)cc2)N(C)C(=O)[C@H](Cc2ccncc2)NC(=O)[C@H](CCCNC(=N)N)NC(=O)[C@H](CCC(=O)NCCOCCOCCOCCOCCOCCOCCOCCOC)NC(=O)[C@H]([C@@H](C)CC)NC1=O` [compound 231] the figure was 0.001 to 0.1 µM.
With `CC[C@H](C)[C@@H]1NC(=O)[C@H](Cc2ccc(OCC(=O)O)cc2)NC(=O)[C@H](Cc2ccc(N)nc2)NC(=O)[C@H](CC(N)=O)NC(=O)[C@H](Cc2c[nH]c3ncccc23)NC(=O)[C@H](C(C)C)NC(=O)[C@H](Cc2cccc(Cl)c2)N(C)C(=O)[C@H](C(C)C)NC(=O)[C@H](C)NC(=O)CSC[C@@H](C(=O)NCCOCCOCCOCCOCCC(N)=O)NC(=O)[C@H](Cc2ccc(O)cc2)N(C)C(=O)[C@H](CCC(=O)NCCOCCOCCOCCOCCOCCOCCOCCOC)NC(=O)[C@H](CCCNC(=N)N)NC(=O)[C@H](CCC(=O)NCCOCCOCCOCCOCCOCCOCCOCCOC)NC(=O)[C@H]([C@@H](C)CC)NC1=O` [compound 232] ({CH2CO}-AV[NMePhe(3-Cl)]V[Trp(7-aza)]N[3Pal(6-NH2)]Y(Carboxymethyl)IIE(NH(CH2CH2O)8Me)RE(NH(CH2CH2O)8Me)[NMeY]C[PEG4]-NH2; thioether N-15) the figure was 0.1 to 1 µM.
With `CC[C@H](C)[C@@H]1NC(=O)[C@H](Cc2ccc(OCC(=O)O)cc2)NC(=O)[C@H](Cc2ccc(N)nc2)NC(=O)[C@H](CC(N)=O)NC(=O)[C@H](Cc2c[nH]c3ncccc23)NC(=O)[C@H](C(C)C)NC(=O)[C@H](Cc2cccc(Cl)c2)N(C)C(=O)[C@H](C(C)C)NC(=O)[C@H](C)NC(=O)CSC[C@@H](C(=O)NCCOCCOCCOCCOCCC(N)=O)NC(=O)[C@H](Cc2ccc(O)cc2)N(C)C(=O)[C@H](Cc2cccc(C(=O)O)c2)NC(=O)[C@H](CCCCN2CCOCC2)NC(=O)[C@H](CCC(=O)NCCOCCOCCOCCOCCOCCOCCOCCOC)NC(=O)[C@H]([C@@H](C)CC)NC1=O` [compound 233] ({CH2CO}-AV[NMePhe(3-Cl)]V[Trp(7-aza)]N[3Pal(6-NH2)]Y(Carboxymethyl)IIE(NH(CH2CH2O)8Me)[Nle(6-morpholino)][Phe(3-COOH)][NMeY]C[PEG4]-NH2; thioether N-15) the figure was 0.001 to 0.1 µM.
For `CC[C@H](C)[C@@H]1NC(=O)[C@H](Cc2ccc(OCC(=O)O)cc2)NC(=O)[C@H](Cc2ccc(O)cc2)NC(=O)[C@H](CC(N)=O)NC(=O)[C@H](Cc2c[nH]c3ncccc23)NC(=O)[C@H](C(C)C)NC(=O)[C@H](Cc2cccc(Cl)c2)N(C)C(=O)[C@H](C(C)C)NC(=O)[C@H](C)NC(=O)CSC[C@@H](C(=O)NCCOCCOCCOCCOCCC(N)=O)NC(=O)[C@H](Cc2ccc(O)cc2)N(C)C(=O)[C@H](CCC(=O)NCCOCCOCCOCCOCCOCCOCCOCCOC)NC(=O)[C@H](CCCCN2CCOCC2)NC(=O)[C@H](CCC(=O)NCCOCCOCCOCCOCCOCCOCCOCCOC)NC(=O)[C@H]([C@@H](C)CC)NC1=O` [compound 234] ({CH2CO}-AV[NMePhe(3-Cl)]V[Trp(7-aza)]NYY(Carboxymethyl)IIE(NH(CH2CH2O)8Me)[Nle(6-morpholino)]E(NH(CH2CH2O)8Me)[NMeY]C[PEG4]-NH2; thioether N-15), the Kd lay within 0.1 to 1 µM.
The value for `CC[C@H](C)[C@@H]1NC(=O)[C@H](Cc2ccc(OC)cc2)NC(=O)[C@H](Cc2ccc(O)cc2)NC(=O)[C@H](CC(N)=O)NC(=O)[C@H](Cc2c[nH]c3ncccc23)NC(=O)[C@H](C(C)C)NC(=O)[C@H](Cc2cccc(Cl)c2)N(C)C(=O)[C@H](C(C)C)NC(=O)[C@H](C)NC(=O)CSC[C@@H](C(=O)NCCOCCOCCOCCOCCC(N)=O)NC(=O)[C@H](Cc2ccc(O)cc2)N(C)C(=O)[C@H](CCC(=O)NCCOCCOCCOCCOCCOCCOCCOCCOC)NC(=O)[C@H](CCCCN2CCOCC2)NC(=O)[C@H](CCC(=O)NCCOCCOCCOCCOCCOCCOCCOCCOC)NC(=O)[C@H]([C@@H](C)CC)NC1=O` [compound 235] ({CH2CO}-AV[NMePhe(3-Cl)]V[Trp(7-aza)]NYY(Me)IIE(NH(CH2CH2O)8Me)[Nle(6-morpholino)]E(NH(CH2CH2O)8Me)[NMeY]C[PEG4]-NH2; thioether N-15) was 0.001 to 0.1 µM; that for `CC[C@H](C)[C@@H]1NC(=O)[C@H](Cc2ccc(OC)cc2)NC(=O)[C@H](Cc2ccc(N)nc2)NC(=O)[C@H](CC(N)=O)NC(=O)[C@H](Cc2c[nH]c3ncccc23)NC(=O)[C@H](C(C)C)NC(=O)[C@H](Cc2cccc(Cl)c2)N(C)C(=O)[C@H](C(C)C)NC(=O)[C@H](C)NC(=O)CSC[C@@H](C(=O)NCCOCCOCCOCCOCCC(N)=O)NC(=O)[C@H](Cc2ccc(O)cc2)N(C)C(=O)[C@H](Cc2ccncc2)NC(=O)[C@H](CCCCN2CCOCC2)NC(=O)[C@H](CCC(=O)NCCOCCOCCOCCOCCOCCOCCOCCOC)NC(=O)[C@H]([C@@H](C)CC)NC1=O` [compound 236] ({CH2CO}-AV[NMePhe(3-Cl)]V[Trp(7-aza)]N[3Pal(6-NH2)]Y(Me)IIE(NH(CH2CH2O)8Me)[Nle(6-morpholino)][4Pal][NMeY]C[PEG4]-NH2; thioether N-15) was 0.001 to 0.1 µM.
With `CC[C@H](C)[C@@H]1NC(=O)[C@H](Cc2ccc(OC)cc2)NC(=O)[C@H](Cc2ccc(N)nc2)NC(=O)[C@H](CC(N)=O)NC(=O)[C@H](Cc2c[nH]c3ncccc23)NC(=O)[C@H](C(C)C)NC(=O)[C@H](Cc2cccc(Cl)c2)N(C)C(=O)[C@H](C(C)C)NC(=O)[C@H](C)NC(=O)CSC[C@@H](C(=O)NCCOCCOCCOCCOCCC(N)=O)NC(=O)[C@H](Cc2ccc(O)cc2)N(C)C(=O)[C@H](Cc2ccncc2)NC(=O)[C@H](CCCCNC(=O)N2CCN(CC(=O)O)CC2)NC(=O)[C@H](CCC(=O)NCCOCCOCCOCCOCCOCCOCCOCCOC)NC(=O)[C@H]([C@@H](C)CC)NC1=O` [compound 237] ({CH2CO}-AV[NMePhe(3-Cl)]V[Trp(7-aza)]N[3Pal(6-NH2)]Y(Me)IIE(NH(CH2CH2O)8Me)K([CO-Piperazinyl(4-CH2COOH)])[4Pal][NMeY]C[PEG4]-NH2; thioether N-15) the figure was 0.001 to 0.1 µM.

The record behind these values is US20260116920A1, “HUMAN TRANSFERRIN RECEPTOR BINDING PEPTIDE” (PEPTIDREAM INC., priority 2021, published 2026).
